Experimental findings from article PMC6143625, “A high throughput screen for next-generation leads targeting malaria parasite transmission” (Nature Communications, 2018) are described below.

For assay [1], the system named is Stage IV–V 3D7 gametocytes. Description: Gametocytocidal ATP-based bioluminescence assay (GC-ATP). It counts as cell-based, Plasmodium falciparum 3D7. As to conditions: Plasmodium falciparum, 3D7; 48h incubation; read-out: Pf late stage gametocyte (ATP depletion) IC50. As to the method: The metabolic viability of late stage gametocytes was determined using a gametocyte ATP bioluminescence assay. Stage IV–V 3D7 gametocyte cultures were double-purified by density gradient sedimentation over NycoPrep® followed by magnetic isolation. Then, parasites (50 µl per well containing 12,500 gametocytes) were added to compound pre-dispensed 384-well plates (781091, Greiner) and incubated at 37 °C for 48 h under 5% CO2/3% O2/92% N2. BacTiter-Glo® kit (G8231, Promega) was used to determine the ATP levels of viable parasites according to manufacturer’s instructions. After reagent addition (50 µl per well), luminescence of the plates was measured using a microplate reader (HTS counter Victor, Wallac).

For assay [2], the system named is P. falciparum stage V male gametocytes (male gamete formation). Description: P. falciparum dual gamete formation assay (Pf DGFA), male readout (exflagellation), 48 h carry-over format. It counts as cell-based, Plasmodium falciparum NF54.
In assay [3] the test system is P. falciparum 3D7 asexual blood stages. Description: Whole-cell time extended asexual growth assay (pLDH). It counts as cell-based. As to conditions: Plasmodium falciparum; for pIC50: 72h incubation, read-out: Pf Asexual IC50; for IC50: dose response retest, read-out: IC50 (µM) Asex stages; for IC50 / inhibition at 2 µM: 72 h; for inhibition at 2 µM: primary screen, read-out: %Inh Asex stages @2uM. As to the method:
Asexual activity was assayed via Plasmodium lactate dehydrogenase activity (pLDH), a surrogate of asexual parasite growth. […] 2 µM artesunate and DMSO were used as the positive and negative controls, respectively. […] After plate mixing, NBT reduction was measured by absorbance at 650 nm using Envision (Perkin Elmer).

In assay [4] the test system is P. falciparum stage V female gametocytes (female gamete formation). Description: P. falciparum dual gamete formation assay (Pf DGFA), female readout (Pfs25 expression), 48 h carry-over format. It counts as cell-based, Plasmodium falciparum NF54. As to conditions: Plasmodium falciparum.
The mark [5] stands for this setting: Plasmodium falciparum, 48h preincubation/carry-over, read-out: Pf DGFA Male IC50.
Setting [6] is: 24h preincubation/carry-over, read-out: Pf DGFA Female IC50.
[7] abbreviates: 48h preincubation/carry-over, read-out: Pf DGFA Female IC50.

pIC50: −log10 of the molar value. Where two headings read alike, the source gives them in different places.

Turning to `Cc1ccc(-c2cc(C(=O)NCCC3=CCCCC3)[nH]n2)o1` [DDD01255968], the pIC50 was < 5.00 in assay [1]; 5.81 in assay [2] (Plasmodium falciparum, 48 h, dose response retest of primary hits, 48 h incubation, read-out: Male IC50); 5.74 in assay [2] (setting [5]); 4.80 in assay [2] (Plasmodium falciparum, resynthesized, incubated at room temperature, read-out: IC50 in Pf DGFA after aging); 5.23 in assay [2] (Plasmodium falciparum, resynthesized, prolonged incubation at 37 °C, read-out: IC50 in Pf DGFA after aging); < 4.70 in assay [3]. Moreover, the pIC50 in assay [4] (setting [6]) is < 4.90; in assay [4] (48 h, dose response retest of primary hits, 48 h incubation, read-out: Female IC50) it was < 5.00; in assay [4] (setting [7]), < 4.90. For the same compound, the inhibition at 2 µM in assay [2] (Plasmodium falciparum, primary screen, 2 uM, 48 h incubation, single replicate) is 37.5%; in assay [4] (primary screen, 2 uM, 48 h incubation, single replicate), < 30%. Moreover, the “activity in the Pf DGFA” value in assay [2] (freshly resynthesized compound) is “inactive”.

As to `CCn1ncc(Br)c1CN(C)S(=O)(=O)c1ccc(C)cc1` [DDD01259521], the pIC50 in assay [1] was < 5.00; in assay [2] (setting [5]), < 4.90; in assay [3], 5.97; in assay [4] (setting [6]) it was < 4.90; in assay [4] (setting [7]) it was < 4.90. The IC50 in assay [3] is 1.02 µM. In assay [3], the inhibition at 2 µM turned out to be 56.1%.

Regarding `c1cnnc(N2CCCC2CNc2ncnc3sccc23)c1` (centres unmarked) [DDD01299704], the pIC50 is < 5.00 in assay [1]; < 4.90 in assay [2] (setting [5]); 6.36 in assay [3]; < 4.90 in assay [4] (setting [6]); < 4.90 in assay [4] (setting [7]). The IC50 in assay [3] amounted to 0.532 µM. In addition, the inhibition at 2 µM in assay [3] was 66.7%.
